One assay has as its system ATF4. The experiment in a line: ATF4 expression inhibition assay (thapsigargin-stressed HEK293T cells, western blot). It counts as cell-based. As to conditions: Homo sapiens, HEK-293T; for IC50: 3 h with 100 nM Tg, test compound 1 nM to 1 μM; for inhibition at 0.1 µM: 3 h with 100 nM thapsigargin (Tg) and 100 nM test compound; for inhibition at 0.1 µM / inhibition at 1 µM: Tg alone 0%, untreated 100%; for inhibition at 1 µM: 3 h with 100 nM thapsigargin (Tg) and 1 μM test compound. The procedure, abridged:
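HEK293T cells treated with thapsigargin (Tg) plus test compound (100 nM or 1 μM) for 3 hours, then lysed; ATF4 measured by western blot with ECL and densitometry. % inhibition normalized to Tg alone (0%) and untreated cells (100%); IC50 also calculated.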
(Immunoblotting shows a protein as a band on a membrane.)

In another assay the test system is CHO cells. The experiment in a line: Protein translation assay (puromycin incorporation in CHO cells, unstressed or Tg-stressed). Type of assay: cell-based, Chinese hamster. As to conditions: Cricetulus griseus, media alone 100%; for activity at 0.1 µM: read-out: % Recovery of protein expression (100 nM test compound). An outline of the steps:
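CHO cells pretreated 2 h with 1 μM compound (unstressed), or 1 h with 100 nM or 1 μM then co-treated with 300 nM Tg. Pulse-labelled with 10 μg/ml puromycin for 30 min, then anti-puromycin western blot with densitometry. Unstressed values normalized to media alone (100%); stressed recovery scaled between media alone (100%) and Tg alone (0%).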

The subject of another assay is fasted Balb/c mice. The experiment in a line: Fasting-induced muscle atrophy. It counts as in vivo, mouse. On the procedure:
Wild type eight-weeks-old male Balb/c mice obtained from the vivarium Fundacion Ciencia & Vida Chile (Santiago, Chile) were used. Mice were housed in independent plastic cages in a room maintained at 25° C. with a 12-h:12-h light:dark cycle.
Twenty-four hours before and during the 2 days of fasted procedures, animals received oral administration via feeding tubes (15 gauge) of vehicle (50% Polyethylene glycol 400 (Sigma-Aldrich P3265) in distilled water or 10 mg/kg of compound 3 formulated in vehicle solution.
After 2 days of fasting the animals were sacrificed and muscles were removed from both hindlimbs. Mice with feed and water ad libitum were used as control.
For in vivo measurements of protein synthesis, puromycin (Sigma-Aldrich, P8833) was prepared at 0.04 μmol/g body weight in a volume of 200 μL of PBS, and subsequently administered into the animals via IP injection, 30 min prior to muscle collection.
Upon collection, muscles were immediately frozen in liquid nitrogen and then stored at −80° C. […] Protein concentration in supernatants was determined using BCA Protein Assay Kit (Pierce). […]
Puromycin (12D10) (Merck Millipore) and β-actin (Sigma-Aldrich) antibodies were used as primary antibodies. […] Quantification of protein bands was done by densitometry using ImageJ software. […]

The subject of assay [1] is hippocampal slices from transgenic APP/PS1 mice. In words: Electrophysiology and long-term potentiation in hippocampal slices. As to conditions: slices from APP/PS1 mouse, 5 μM, 60 min after theta burst stimulation. On the procedure:
Hippocampal slices were prepared as described in Ardiles et al., Pannexin 1 regulates bidirectional hippocampal synaptic plasticity in adult mice. Front Cell Neurosci, vol. 8, art. 326 (2014). Six to eleven-month-old WT C57BL/6 or transgenic APP/PS1 mice (Jackson Lab 34829-JAX) were deeply anesthetized with isoflurane and their brains were quickly removed. 5-10 slices (350 μm) from each animal were dissected in ice-cold dissection buffer using a vibratome (Leica VT1200S, Leica Microsystems, Nussloch, Germany). Slices were incubated with 5 μM ISRIB, 5 μM compound 3, 1 μM compound 152, or a vehicle (complete medium containing 0.1% DMSO) 20 min before conditioning stimulation. Synaptic responses were evoked by stimulating the Schaffer collaterals with 0.2 ms pulses delivered through concentric bipolar stimulating electrodes, and recorded extracellularly in the stratum radiatum of the CA1 subfield. Long-term potentiation (LTP) was induced by four-theta burst stimulation (TBS) (10 trains of four pulses at 100 Hz; 5 Hz inter-burst interval) delivered at 0.1 Hz. LTP magnitude based on field excitatory postsynaptic potential (fEPSP) was calculated as the average (normalized to baseline) of the responses recorded 60 min after conditioning stimulation. Similar experiments can be performed using a different test compound in place of ISRIB, compound 3, or compound 152.

Where [2] appears, read: CHO cells stressed with 300 nM Tg, Tg alone 0%.
The mark [3] stands for this setting: CHO cells stressed with 300 nM Tg, Tg alone 0%, read-out: % Recovery of protein expression (1 μM test compound).
[4] abbreviates: unstressed CHO cells, 2 h, read-out: % Protein expression relative to untreated (1 μM test compound).

Read-outs that look alike come from different tables or passages of the source.

As to `O=C(NC1CCN(C[C@H](O)COc2ccc(Cl)c(F)c2)CC1)c1ccc2cc(Cl)ccc2n1` (single isomer, unassigned) [Compound 152, (+)-6-chloro-N-(1-(3-(4-chloro-3-fluorophenoxy)-2-hydroxypropyl)piperidin-4-yl)quinoline-2-carboxamide], in the assay with ATF4, the midpoint of inhibition, the IC50, lay at 49 nM; the inhibition – broadly, the percentage by which the read-out fell short of the control – at 0.1 µM was found to be 86%; the inhibition at 1 µM amounted to 91%. In addition, in the assay on CHO cells (setting [2]), the activity at 0.1 µM is 99.1%. Besides, the activity at 1 µM with CHO cells (setting [3]) amounted to 280%. Also, the activity at 1 µM with CHO cells (setting [4]) was found to be 239%. Further, the “ATF4 staining in muscle fiber CSA” value with fasted Balb/c mice is on record as “No staining was detected”.

On to `O=C(COc1ccc(Cl)c(F)c1)N[C@H]1CC[C@H](NC(=O)c2ccc3cc(Cl)ccc3c2)CC1` [Compound 145, trans-6-chloro-N-(4-(2-(4-chloro-3-fluorophenoxy)acetamido)cyclohexyl)-2-naphthamide], for which, in the assay with ATF4, the IC50 – broadly, the point on the concentration scale where inhibition reaches its midpoint – amounted to 17.1 nM; testing at 0.1 µM gave an inhibition of 97%; the inhibition at 1 µM is 97%. Also, the activity at 0.1 µM in the assay on CHO cells (setting [2]) came out at 22.6%. The activity at 1 µM in the assay with CHO cells (setting [3]) was 40.6%. Further, the activity at 1 µM with CHO cells (setting [4]) amounted to 95.4%.

In the case of `O=C(NC1CCN(CCCOc2ccc(Cl)c(F)c2)CC1)c1ccc2cc(Cl)ccc2n1` [Compound 146, 6-chloro-N-(1-(3-(4-chloro-3-fluorophenoxy)propyl)piperidin-4-yl)quinoline-2-carboxamide], in the assay with ATF4, the IC50 is 49.9 nM, the inhibition at 0.1 µM is 88% and testing at 1 µM gave an inhibition of 100%. Besides, the activity at 0.1 µM in the assay with CHO cells (setting [2]) stood at 43.4%. In the assay on CHO cells (setting [3]), the activity at 1 µM was 265%. Moreover, in the assay with CHO cells (setting [4]), the activity at 1 µM was determined as 246%.

In the assay on ATF4, `O=C(N[C@H]1CC[C@H](NCC(O)COc2ccc(Cl)c(F)c2)CC1)c1cc2cc(Cl)ccc2o1` (stereo partly drawn) [Compound 147, trans-5-chloro-N-(4-((3-(4-chloro-3-fluorophenoxy)-2-hydroxypropyl)amino)cyclohexyl)benzofuran-2-carboxamide] yielded an IC50 of 33.1 nM, an inhibition at 0.1 µM of 95% and an inhibition at 1 µM of 100%. The activity at 0.1 µM with CHO cells (setting [2]) stood at 75.2%. For the same compound, the activity at 1 µM in the assay on CHO cells (setting [3]) was found to be 262%. Further, in the assay on CHO cells (setting [4]), the activity at 1 µM came to 190%.

In the assay on ATF4, `O=C(NC1CCN(CCCOc2ccc(Cl)c(F)c2)CC1)c1cc2cc(Cl)ccc2o1` [Compound 148, 5-chloro-N-(1-(3-(4-chloro-3-fluorophenoxy)propyl)piperidin-4-yl)benzofuran-2-carboxamide] displayed an inhibition at 0.1 µM of 30%. The inhibition at 1 µM in the assay with ATF4 was found to be 90%. Further, the activity at 0.1 µM with CHO cells (setting [2]) amounted to 37.2%. In addition, the activity at 1 µM with CHO cells (setting [3]) was found to be 250%; in the assay with CHO cells (setting [4]), 123%.

In the assay with ATF4, `O=C(COc1ccc(Cl)cc1)N[C@H]1CC[C@H](NC(=O)C2CNc3cc(Cl)ccc3O2)CC1` (stereo partly drawn) [Compound 156, trans-6-chloro-N-(4-(2-(4-chlorophenoxy)acetamido)cyclohexyl)-3,4-dihydro-2H-benzo[b][1,4]oxazine-2-carboxamide] registered an IC50 of 16 nM, an inhibition at 0.1 µM of 94% and an inhibition at 1 µM of 97%. In addition, in the assay with CHO cells (setting [2]), the activity at 0.1 µM turned out to be 25.1%. For the same compound, in the assay with CHO cells (setting [3]), the activity at 1 µM worked out at 200%. Further, in the assay with CHO cells (setting [4]), the activity at 1 µM was 197%.

As to `O=C(COc1ccc(Cl)cc1)N[C@H]1CC[C@H](N2CC(COc3ccc(Cl)cc3)OC2=O)CC1` (stereo partly drawn) [Compound 159, trans-2-(4-chlorophenoxy)-N-(4-(5-((4-chlorophenoxy)methyl)-2-oxooxazolidin-3-yl)cyclohexyl)acetamide], in the assay on ATF4, the IC50 was below 100 nM, at 0.1 µM the inhibition was 52% and 1 µM produced 84% inhibition. In addition, the activity at 0.1 µM in the assay on CHO cells (setting [2]) was found to be 23.9%. Also, the activity at 1 µM in the assay with CHO cells (setting [3]) came to 79.4%.

For the compound `O=C(COc1ccc(Cl)cc1)NC1CCC(NC(=O)COc2ccc(Cl)cc2)CC1` (stereo not drawn) [ISRIB], the “long-term potentiation (LTP), fEPSP” value in assay [1] is on record as “partial LTP recovery”.

The values above are taken from patent US11230542B2, “Inhibitors of integrated stress response pathway” (Praxis Biotech LLC, priority 2017, dated 2022).
